According to patent publication US20070105789A1, “Combinatorial chemotherapy treatment using Na+/K+ ATPase inhibitors” (priority 2004, published 2007):
Like-named read-outs stand apart in the source and are kept apart here.

How the values were obtained:
[1] = test system: A549 Sentinel Line; assay: Sentinel Line reporter assay (beta-gal, FACS); type: cell-based, human; conditions: agent alone, 40 hrs, FACS
Protocol: The expression level of beta-galactosidase gene in sentinel lines was determined by using a fluorescent substrate fluorescein di-B-D-Galactopyranside (FDG, Marker Gene Tech, #M0250) introduced into cells by hypotonic shock. Cleavage by beta-galactosidase results in the production of free fluorescein, which is unable to cross the plasma membrane and is trapped inside the beta-gal positive cells. Briefly, the cells to be analyzed are trypsinized, and resuspended in PBS containing 2 mM FDG (diluted from a 10 mM stock prepared in 8:1:1 mixture of water: ethanol: DMSO). The cells were then shocked for 4 minutes at 37° C. and transferred to FACS tubes containing cold 1×PBS on ice. Samples were kept on ice for 30 minutes and analyzed by FACS in FLI channel.
Sentinel Line cells with beta-galactosidase reporter gene were plated at 1×10^5 cells/10 cm dish. […] After 40 hrs, the cells were trypsinized and the expression level of reporter gene was determined by FDG loading.
The reporter activity was measured by FACS analysis.

[2] = test system: Caki-1 human renal cancer xenograft; type: in vivo, nude mice; conditions: for % TGI: Caki-1, Day 22; for % TGI / Final Tumor weight Day 22 (Mean): BNC-1 20 mg/ml s.c. pump, Cytoxan 300 or 100 ip; for Final Tumor weight Day 22 (Mean): tumor weight in mg
Description: (§1) Female nude mice (nu/nu) between 5 and 6 weeks of age weighing approximately 20 g were implanted subcutaneously (s.c.) by trocar with fragments of human tumors harvested from s.c. grown tumors in nude mice hosts. […] Each group contains 8-10 mice, each of which was ear tagged and followed throughout the experiment.
(§2) The administration of drugs or controls began the day the animals were pair-matched (Day 1). […] Mice were weighed and tumor measurements were obtained using calipers twice weekly, starting Day 1. These tumor measurements were converted to mg tumor weight by standard formula, (W^2×L)/2. The experiment is terminated when the control group tumor size reached an average of about 1 gram. Upon termination, the mice were weighed, sacrificed and their tumors excised. The tumors were weighed and the mean tumor weight per group was calculated.

[3] = test system: Panc-1 human pancreatic xenograft; assay: Panc-1 human pancreatic tumor xenograft in nude mice; type: in vivo; conditions: for Final Tumor weight Day 25 (Mean): BNC-1 20 mg/ml s.c. osmotic pump, tumor weight in mg
Description: as §1, §2
(§3) The control animals received pumps containing vehicle (50% DMSO in DMEM). The mice treated with standard chemotherapy agent received intra-peritoneal injections of Gemcitabine at 40 mg/kg every 3 days for 4 treatments (q3d×4). Each data point represent average tumor weight (n=8) and error bars indicate SEM.
as §3

[4] = test system: rats; conditions: adult; cited from earlier work
[5] = test system: several different cancer cell lines; assay: proliferation of cancer cell lines (ouabain IC50); type: cell-based; conditions: read-out: IC50 across several different cancer cell lines
[6] = test system: Na+/K+-ATPase; conditions: Erdmann E 1978; cited from earlier work
[7] = human pharmacokinetics (literature); conditions: species not stated
[8] = cited from earlier work
[9] = test system: VEGF; assay: VEGF secretion in tumor cells; type: cell-based; conditions: FIG. 8
[10] = test system: cats; conditions: cited from earlier work
[11] = target: Na+/K+-ATPase α peptide isoforms; conditions: read-out: Kd of ouabain for the four α peptide isoforms; almost all mammalian species; cited from earlier work
[12] = test system: panel of 10 cancer cell lines; assay: cytotoxicity against a panel of 10 cancer cell lines; type: cell-based; conditions: read-out: median IC50
[13] = test system: A549(ROS) Sentinel Line; assay: ROS levels by FACS in A549(ROS) cells; type: cell-based, human; conditions: normoxia, 4 hrs
Protocol: Thirty minutes prior to the termination of incubation period, 2,7-dichlorofluorescin diacetate (CFH-DA, […]) was added to the cells and incubated for the last 30 min at 37° C. The ROS levels were determined by FACS analysis.

[14] = test system: A549 human non-small-cell-lung carcinoma; assay: A549 human non-small-cell-lung carcinoma xenograft in nude mice; conditions: for % TGI: A549, Day 38; for Final Tumor weight Day 38 (Mean): A549, tumor weight in mg; for Final Tumor weight Day 38 (Mean) / % Weight Change at Day 38: BNC-1 20 mg/ml s.c. pump, Carboplatin 100 mg/kg ip; for % Weight Change at Day 38: A549 xenograft mice; for signs of tumor at the end of the experiment: A549 xenograft, 8 animals per group
Description: as §1, §2
Carboplatin (qldxl) was injected at 100 mg/kg (Carb).

[15] = test system: A549 cell line; assay: anti-proliferation MTS assay in A549 cell line; type: cell-based; conditions: Homo sapiens
Protocol: (§4) Anti-prolerafitive IC50 values were determined by MTS assay using an A549 cell line. Na^+/K^+-ATPase inhibition IC50 values were obtained using enzyme preparation from dog kidney (Sigma).

[16] = target: T1, Na+/K+-ATPase (Canis lupus familiaris, UniProt P50997); assay: Na+/K+-ATPase inhibition; type: biochemical, dog
T1 construct: enzyme preparation from dog kidney (Sigma); purchased Sigma; host or cells: dog kidney tissue
Protocol: as §4

[17] = test system: HIF-1α; assay: Western blot using anti-HIF-1α antibody (Example XVI); type: cell-based; conditions: 1 μM
[18] = Panc-1, Gemcitabine 40 mg/kg q3d×4

In the case of `O=C1c2c(O)ccc(O)c2C(=O)c2c(NCCNCCO)ccc(NCCNCCO)c21` [mitoxanthrone, mitoxantrone], the “reporter activity in Sentinel Lines” value [1] is reported as “increases in cell death and reporter activity”.

In the case of `O=P1(N(CCCl)CCCl)NCCCO1` (centres unmarked) [Cytoxan], the “% TGI” value [2] is reported as 94.48%, the “% TGI” value ([2]; listed as Cytoxan100) is reported as 54.70% and the “Final Tumor weight Day 22 (Mean)” value ([2]; Caki-1) is reported as 93.7. The “Final Tumor weight Day 22 (Mean)” value ([2]; Caki-1, listed as Cytoxan100) was 769 and the TGI ([2]; Caki-1, Cytoxan 100 mg/kg alone, positive control) was 92%.

For `Nc1ccn([C@@H]2O[C@H](CO)[C@@H](O)C2(F)F)c(=O)n1` [Gemcitabine, gemcitabine], the “reporter activity in Sentinel Lines” value [1] was “elevated reporter activity”, the “Final Tumor weight Day 25 (Mean)” value [3, 18] was 701.3 and the TGI ([3]; Panc-1, BNC-4 15 mg/ml s.c. pump, Gemcitabine 40 mg/kg q3d×4) was 65%. The “% TGI” value ([3]; mouse, in vivo) was 37.40%.

In the case of `C[C@H]1O[C@@H](O[C@H]2[C@@H](O)C[C@H](O[C@H]3[C@@H](O)C[C@H](O[C@H]4CC[C@@]5(C)[C@H](CC[C@@H]6[C@@H]5CC[C@]5(C)[C@@H](C7=CC(=O)OC7)CC[C@]65O)C4)O[C@@H]3C)O[C@@H]2C)C[C@H](O)[C@@H]1O` [Digitoxin], the LD50 p.o. [4] is given as 0.1 mg/kg.

In the case of `CC(=O)O[C@H]1C(=O)[C@@]2(C)[C@H]([C@H](OC(=O)c3ccccc3)[C@]3(O)C[C@H](OC(=O)[C@H](O)[C@@H](NC(=O)c4ccccc4)c4ccccc4)C(C)=C1C3(C)C)[C@]1(OC(C)=O)CO[C@@H]1C[C@@H]2O` [paclitaxel], the “reporter activity in Sentinel Lines” value [1] is reported as “increases in cell death and reporter activity”.

In the case of `C[C@@H]1O[C@@H](O[C@H]2C[C@@H](O)[C@]3(CO)[C@H]4[C@H](O)C[C@]5(C)[C@@H](C6=CC(=O)OC6)CC[C@]5(O)[C@@H]4CC[C@]3(O)C2)[C@H](O)[C@H](O)[C@H]1O` [BNC-1, ouabain], the IC50 [5] is listed as 15 to 600 nM, the “order of Na+/K+-ATPase-inhibition” value [6] is listed as “Ouabain<Digoxin<Proscillaridin” and the max. plasma concentration [7] is listed as “about 0.03 μg/mL”. For the same compound, the “% TGI” value ([3]; Panc-1, Day 25, BNC-1 20 mg/ml s.c. pump, Gemcitabine 40 mg/kg q3d×4) was 82.15%, the “Final Tumor weight Day 25 (Mean)” value [3, 18] was 200 and the “plasma half-life in human” value ([8]; according to the literature) was “about 20 hours”. The “plasma half-life in human, range” value ([8]; according to the literature) was 5 to 50 h, the “secretion of VEGF in tumor cells” value [9] was “directly or indirectly inhibits” and the intravenous toxicity [10] was 0.133 mg/kg. The “toxicity on duodenal administration” value [10] was 5.3 mg/kg, the Kd [11] was at most 1 nM and the “toxic serum concentration at day 1 (serum level at MTD)” value (mice) was “about 50±21 ng/ml”. The “therapeutic serum concentration required to achieve >60% TGI” value (steady state, xenograft nude mouse) was “about 20±15 ng/ml”, the “% TGI” value [2] was 81.45% and the “Final Tumor weight Day 22 (Mean)” value ([2]; Caki-1) was 314.9. For the same compound, the IC50 [12] was 78 nM, the ROS production [13] was “induces ROS production” and the “% TGI” value [14] was 100.00%. The “Final Tumor weight Day 38 (Mean)” value [14] was 0.0, the “% Weight Change at Day 38” value [14] was 21% and the “signs of tumor at the end of the experiment” value [14] was “none of the experimental animals showed any signs of tumor”.

For `C[C@@H]1OC(OC2C=C3CCC4C5=CC[C@H](c6ccc(=O)oc6)[C@@]5(C)CCC4[C@@]3(C)CC2)[C@H](O)[C@H](O)[C@H]1O` (some centres unmarked) [BNC-151], the IC50 [15] was 260 nM, the IC50 [16] was 1380 nM and the HIF-1α expression [17] was “Significant inhibition”.

Work on `CC(=O)OC1C=C2CCC3C4=CC[C@H](c5ccc(=O)oc5)[C@@]4(C)CCC3[C@@]2(C)CC1` (some centres unmarked) [BNC-147] yielded an IC50 [15] of 11500 nM and an IC50 [16] of 65000 nM.

In the case of `N.N.O=C([O-])C1(C(=O)[O-])CCC1.[Pt+2]` [Carboplatin], the “reporter activity in Sentinel Lines” value [1] is reported as “increases in cell death and reporter activity”, the “% TGI” value [14] is reported as 39.50% and the “Final Tumor weight Day 38 (Mean)” value [14] is reported as 509.75. For the same compound, the “% Weight Change at Day 38” value [14] was 16% and the “signs of tumor at the end of the experiment” value [14] was “developed tumors of significant sizes”.

With `COc1cc2ncnc(Nc3ccc(F)c(Cl)c3)c2cc1OCCCN1CCOCC1` [Iressa] the “reporter activity in Sentinel Lines” value [1] was “reduction in reporter activity”.

For `C[C@H]1O[C@@H](O[C@H]2[C@@H](O)C[C@H](O[C@H]3[C@@H](O)C[C@H](O[C@H]4CC[C@@]5(C)[C@H](CC[C@@H]6[C@@H]5C[C@@H](O)[C@]5(C)[C@@H](C7=CC(=O)OC7)CC[C@]65O)C4)O[C@@H]3C)O[C@@H]2C)C[C@H](O)[C@@H]1O` [Digoxin], the “order of Na+/K+-ATPase-inhibition” value [6] is given as “Ouabain<Digoxin<Proscillaridin”, the “Volume-of-Distribution (VD)” value ([8]; in vivo) is given as 650 L and the IC50 [12] is given as 37 nM.
